Data published in patent publication US20220347206A1 (NPO Petrovax Pharm, LLC, priority 2021, published 2022).
Several values for one entry are separate records, joined by “and”; a condition that tells them apart may be missing. Equal values may be shown once.

Columns and labels:
[1] = tested on: immature DC; details: in vitro; cited from earlier work
[2] = tested on: COVID-19; details: human, in vivo
[3] = tested on: leukocytes; details: after penetrating leukocytes by endocytosis; cited from earlier work
[4] = tested on: T-cell; details: in vitro; cited from earlier work
[5] = tested on: COVID-19; details: human, in vivo; remark: listed apart in the source
[6] = tested on: natural killer cell; details: in vitro; cited from earlier work

Substance: Azoximer bromide [AZB]
- Immature DC expansion [1]: increase immature DC expansion
- Body temperature normalisation (≤37° C.) [2]: all patients had a normal body temperature
- Day 15 OS score 1 (not hospitalized, no limitations on activities), % [2]: 1.3% and 1 (1.3) %
- Day 15 OS score 2 (not hospitalized, limitation on activities), % [2]: 35.1% and 27 (35.1) %
- Day 15 OS score 3 (hospitalized, not requiring supplemental oxygen), % [2]: 45.5% and 35 (45.5) %
- Day 15 OS score 4 (hospitalized, requiring supplemental oxygen), % [2]: 9 (11.7) %
- Day 15 OS score 5 (hospitalized, on noninvasive ventilation or high flow oxygen devices), % [2]: 3.9% and 3 (3.9) %
- Day 15 OS score 6 (hospitalized, on invasive mechanical ventilation or extracorporeal membrane oxygenation), % [2]: 2.6% and 2 (2.6) %
- Day 15 OS score 7 (death), % [2]: 0 (0.0) %
- Day 15 Ordinal Scale score, mean [2]: 2.90
- Day 28 Mortality: alive, % [2]: 77 (100.0) %
- Day 28 Mortality: dead, % [2]: 0 (0.0) %
- Duration of hospitalization, mean [2]: 19.32 days and 19.13^g days and 19.32^h days
- Duration of hospitalization, median [2]: 19.0 days and 19.0^c days
- Improvement probability (NEWS) [2]: > 80%
- Mean (SD) NEWS [2]: 1.08 (1.18)
- Mean C-reactive protein (CRP) [2]: 13.21 mg/L
- Mean oxygen saturation [2]: 96.90% and 96.98%
- Mean time to an OS score improving to ≤2 [2]: 15.9 days
- Mean time to vanishing signs of pneumonia [2]: 18.45 days
- Median C-reactive protein (CRP) [2]: 8.5 mg/L
- Number of patients requiring respiratory support (OS=4-6) [2]: 14 patients
- Patients with an OS score of 2 or 3, percent [2]: 93.5%
- Pneumonia presence, number of patients [2]: 18 patients
- Pneumonia presence, percent of patients [2]: 23.4%
- Probability of achieving a normal body temperature [2]: 90%
- Respiratory support requirement [2]: No patients required respiratory support
- SpO2 value of the one patient below the reference range [2]: 94%
- Intracellular hydrogen peroxide [3]: significant dose-dependent increases
- T-cell proliferation [4]: induce T-cell proliferation
- Absolute number of ARI cases, control group versus main (AZB) group [5]: more than 10 times higher
- Afflicted by ARI, number [5]: 32
- Afflicted by ARI, percent [5]: 13.1%
- Afflicted by acute respiratory illness (ARI), percent [5]: 0.3%
- Cases of ARI [5]: 3 cases
- Cases of COVID-19 [5]: 1 case
- Confirmed diagnosis of COVID-19 (PCR or antibody test), number [5]: 2
- Confirmed diagnosis of COVID-19 (PCR or antibody test), percent [5]: 0.3%
- Confirmed diagnosis of COVID-19 (PCR test data), number [5]: 6
- Confirmed diagnosis of COVID-19 (PCR test data), percent [5]: 2.4%
- Number of ARI cases, control group versus main (AZB) group [5]: more than 30 times
- Participants who developed pneumonia, percent (reported ARI cases) [5]: 0%
- Natural killer cell degranulation [6]: increase natural killer cell degranulation
